Laboratory results from article PMC8945229, “Development and Biological Characterization of a Novel Selective TrkA Agonist with Neuroprotective Properties against Amyloid Toxicity” (Biomedicines, 2022).
pIC50: −log10 of the molar value.

Legend:
[1] = test system: Erk1/2; set-up: method as in PMID 27618740; conditions: cited from earlier work
[2] = set-up: method as in PMID 27498123, PMID 33638308; conditions: t = 60 min; cited from earlier work
[3] = biological target: T1, TrkA (Rattus norvegicus, UniProt P35739); set-up: method as in PMID 27618740; conditions: cited from earlier work
T1 construct: we used PC12 cells, a cell line that express TrkA and p75^NTR; host or cells: PC12
T1 sequence (P35739 33-799): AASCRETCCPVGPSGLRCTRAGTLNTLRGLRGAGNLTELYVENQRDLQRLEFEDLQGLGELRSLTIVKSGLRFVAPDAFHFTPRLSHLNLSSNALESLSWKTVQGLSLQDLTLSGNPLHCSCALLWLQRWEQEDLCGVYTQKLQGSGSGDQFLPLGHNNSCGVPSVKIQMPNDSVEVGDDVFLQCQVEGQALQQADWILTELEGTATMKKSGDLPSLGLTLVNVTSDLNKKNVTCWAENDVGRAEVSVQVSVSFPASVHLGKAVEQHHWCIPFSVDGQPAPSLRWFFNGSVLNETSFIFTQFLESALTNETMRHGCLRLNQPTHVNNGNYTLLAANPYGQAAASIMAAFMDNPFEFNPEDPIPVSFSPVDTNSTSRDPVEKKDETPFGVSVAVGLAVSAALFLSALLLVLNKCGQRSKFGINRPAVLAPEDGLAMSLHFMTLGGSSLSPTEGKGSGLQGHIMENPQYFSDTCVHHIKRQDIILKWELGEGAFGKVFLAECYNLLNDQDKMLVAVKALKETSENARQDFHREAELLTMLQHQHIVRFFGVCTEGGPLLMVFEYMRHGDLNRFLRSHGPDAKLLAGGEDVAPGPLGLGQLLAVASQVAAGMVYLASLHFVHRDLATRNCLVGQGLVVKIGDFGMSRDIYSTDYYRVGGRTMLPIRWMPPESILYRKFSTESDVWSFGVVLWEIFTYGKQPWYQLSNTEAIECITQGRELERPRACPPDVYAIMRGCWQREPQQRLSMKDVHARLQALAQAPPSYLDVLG

[4] = test system: γ-secretase; assay: γ-secretase activity / APP processing in U2OS APP-C99-tGFP cells; type: cell-based; conditions: 3 μM, positive control
Method: PC12 and HEK293T cells were obtained from LGC Promochem GmbH (Teddington, UK) and cultured under the conditions specified by the manufacturer. NIH3T3 cells were stably transfected with human TrkB plasmid. PC12 cells were grown in DMEM medium (11965084, Gibco, Grand Island, NY, USA) containing 10% Horse Serum (16050122, Gibco, Grand Island, NY, USA), 5% Fetal Bovine Serum (10270106, Gibco, Grand Island, NY, USA), 100 units/mL Penicillin and 0.1 mg/mL Streptomycin (15140122, Gibco, Grand Island, NY, USA) at 5% CO2 and 37 °C. Cells were used between passages 5–20. HEK293T and NIH3T3 cells were grown in the same medium as PC12 cells supplemented with 10% Fetal Bovine Serum and lacking Horse Serum. For transient transfection of HEK293T cells, lipofectamine was used and cells were transfected with human p75^NTR and Traf6 plasmids. To determine the intracellular activity of endogenous secretases, we tagged (tGFP) a truncated mutant (Tm) of APP containing the original amino acids sequence from M516 to N773. This Tm conserves the secretases cleavage sites, clathrin binding site, tau protein binding site, collagen binding site and some glycosylation sites critical for protein localization and intracellular trafficking. The cDNA of the TmAPP gene was amplified by PCR and subcloned into pturbo-GFP vector. The construction was transfected into U2OS cells (ATCC Cat Number HTB-96) using Lipofectamine LTX (Thermo Fisher Scientific, Waltham, MA, USA). After 48 h, individual cells were plated in MTP96 plates using F.SIGHT (CYTENA GmbH, Freiburg, Germany), and cultured in complete medium containing 250 μg/mL G418 for selection. The selection medium was changed every two to three days. The cells were allowed to grow for 3 to 4 weeks, after which clones were isolated for further analysis. Resistant clones were checked by RT-PCR and epifluorescence microscopy.
The Alzheimer’s Disease (AD) phenotype is partly attributed to the toxic effects caused by oligmeric Aβ, which results in reduced neuronal trophic support, caused by deregulation of neurotrophic signaling. It is therefore reasonable that a small molecule that can selectively activate TrkA signaling and promote neuronal survival could alleviate the detrimental effects caused by toxic Aβ oligomers, especially during the early phases of the disease or modulate APP misprocessing and therefore reduce the production of the toxic Aβ. The U2OS stably expressing APP-C99-tGFP cell line was used in order to monitor γ-secretase activity, the process responsible for Aβ production from APP. The assay achieves this by measuring the levels of fluorescent APP-C99 construct produced by β-secretase activity. When γ-secretase is active, the construct is cleaved, leading to Aβ production. […] Therefore, higher fluorescence levels correspond to decreased γ-secretase activity and Aβ aggregate formation by extension. […] In addition, in order to investigate whether ENT-A013 can protect cells against Aβ-induced toxicity we isolated neurons from the hippocampus of E17.5 mouse embryos, a brain area that is heavily affected in AD. Neurons were left in culture for 16–18 DIV and then were treated with oligomeric Aβ and ENT-A013 for 48 h. Subsequently, cells were fixed and cell death was assessed using TUNEL assay.
(A,B) Primary hippocampal neurons were treated for 48 h with oligomeric Aβ in the presence of ENT-A013 and TUNEL assay was used to quantify cell death. Representative images from 3 independent experiments. Data are shown as ±SEM. One-way ANOVA, Tukey’s Test correction: ** p < 0.01; *** p < 0.001. (C) Aggregate formation on untreated cells, treated with DAPT inhibitor of γ-secretase or with compound ENT-A013. […] Aggregate formation was quantified with a BD Pathway 855 High-Content Bioimager and Attonvision software.

[5] = test system: Erk1/2; assay: Erk1/2 phosphorylation in PC12 cells (Western blot); type: cell-based; conditions: for Erk1/2 phosphorylation: 500 nM, 30′
Method: (§1) For immunoprecipitation experiments PC12 or HEK293T, cells were used when at 70–80% confluent. Cells were starved of serum for 4 h and subsequently treated with 100 ng/mL NGF or 500 nM of compound ENT-A013 for 30′. Cells were then lysed in Pierce™ IP Lysis Buffer (87788, Thermo Fischer Scientific, Waltham, MA, USA) containing proteases (539138, Calbiochem, Darmstadt, Germany) and phosphatase inhibitors (524629, Calbiochem, Darmstadt, Germany). Lysates were then immunoprecipitated overnight at 4 °C with TrkA antibody (1:100, 06-574, Sigma-Aldrich, St. Louis, MO, USA) (Table S1) or p75^NTR antibody (1:100, ab6172, Abcam plc., Cambridge, UK) followed by 4 h incubation with protein G-plus agarose beads (sc-2002, Santa Cruz Biotechnology, Inc., Dallas, TX, USA). Beads were then collected, washed 3X with lysis buffer, resuspended in SDS loading buffer and subjected to Western blot against phosphorylated Tyrosine (1:1000, BAM1676, R&D Systems, Inc., Minneapolis, MN, USA) or Traf6 antibody (1:2000, ab33915, Abcam, plc., Cambridge, UK). Whole cell lysates were subjected to Western blot against TrkA (1:1000, 06-574, Sigma-Aldrich, St. Louis, MO, USA), phosphorylated TrkB (1:1000, ABN1381, Sigma-Aldrich, St. Louis, MO, USA), phosphorylated TrkC (1:1000, STJ90960, St John’s Laboratory, Ltd., London, UK), TrkB (1:1000, 07-225-I, Sigma-Aldrich, St. Louis, MO, USA), TrkC (1:1000, C44H5, Cell Signaling Technology, Danvers, MA, USA), p75 (1:1000, 839701, Biolegend, Inc., San Diego, CA, USA), Traf6 (1:2000, ab33915, Abcam, plc., Cambridge, UK) phosphorylated Akt (1:1000, 9721S, Cell Signaling Technology, Danvers, MA, USA), phosphorylated Erk1/2 (1:1000, 9101S, Cell Signaling Technology, Danvers, MA, USA), total Akt (1:1000, 4691S Cell Signaling Technology, Danvers, MA, USA) and total Erk1/2 (1:1000, 4695S, Cell Signaling Technology, Danvers, MA, USA).

[6] = biological target: T1, TrkA; assay: TrkA phosphorylation in PC12 cells (IP with TrkA antibody, Western blot against phosphorylated Tyrosine); type: cell-based; conditions: for time TrkA phosphorylation is sustained after treatment: PC12 cells, 10, 30 or 60′ treatment
Method: as §1, with “Cells were starved of serum for 4 h and subsequently treated with 100 ng/mL NGF or 500 nM of compound ENT-A013 for 30′.” left out

[7] = test system: PC12 cells; assay: CellTox assay, serum deprivation-induced cell death; type: cell-based; conditions: serum deprivation; for CellTox positive cells normalized to total number of cells: 24 h, 500 nM; for pIC50: CellTox, read-out: IC50 (anti-apoptotic dose–response)
Method: CellTox assay (G8742, Promega Corporation, Maddison, WI, USA) was used to assess survival of PC12 cells under serum deprivation conditions. PC12 cells were plated in 96-well plates, starved of serum for 4 h and subsequently treated with NGF (100 ng/mL) or ENT-A013 (500 nM) in the presence or absence of TrkA inhibitor GW441756 (20 μM, G-190, Alomone labs, Jerusalem, Israel) for 24 h. CellTox assay reagents and Hoescht (1:10,000, H3570, Invitrogen, Waltham, MA, USA) were added to each well for 30′ and cells were then imaged with a Zeiss AXIO Vert A1 fluorescent microscope (Zeiss, Jena, Germany). CellTox positive cells were normalized to total number of cells for each image.

| Molecule | time Erk1/2 phosphorylation is sustained after treatment [5] | Erk1/2 phosphorylation [5] | time TrkA phosphorylation is sustained after treatment [6] | CellTox positive cells normalized to total number of cells [7] | pIC50 [7] | further results |
| --- | --- | --- | --- | --- | --- | --- |
| C[C@]12CC[C@H](O)CC1=CC[C@@H]1[C@@H]2CC[C@@]2(C)[C@H]1CC[C@@]21O[C@@H]1CO [BNN27] |  |  |  |  |  | time beyond which Erk1/2 is not activated [1]: ≤ 15 min; residual of time zero [2]: 70%; time TrkA is phosphorylated after treatment [3]: up to 6 hr |
| C[C@H](NC(=O)Cc1cc(F)cc(F)c1)C(=O)N[C@H](C(=O)OC(C)(C)C)c1ccccc1 [DAPT, reference compound] |  |  |  |  |  | fluorescence levels (APP-C99-tGFP, in words) [4]: Fluorescence levels increased |
| CC12CCC(O)CC1=CCC1C2CCC2(C)C1CCC21CC1C=CBr (stereo not drawn) [ENT-A013E] | up to 1 hr | 7.87 ± 2.23 % of control FC | up to 1 hr | 0.07 ± 0.02 | 6.55 |  |
| CC12CCC(O)CC1=CCC1C2CCC2(C)C1CCC21CC1C=CBr (stereo not drawn) [ENT-A013Z] | up to 1 hr | 4.13 ± 1.46 % of control FC | up to 1 hr | 0.08 ± 0.02 | 6.56 |  |
| NGF: Nerve Growth Factor, neurotrophin acting through TrkA and p75NTR receptors |  |  |  |  |  | TrkA phosphorylation ([6]; PC12 cells, compound 500 nM or NGF 100 ng/mL, 30′): 2.30 ± 0.62 % of control FC |
